# Experimental data taken from patent US20220054451A1, “2,3-DIHYDROBENZO[b]THIOPHENE DERIVATIVES AS HYPOXIA INDUCIBLE FACTOR-2(ALPHA) INHIBITORS” (NiKang Therapeutics, Inc., priority 2018, published 2022).
# Molecular target: T1, HIF-2α (Homo sapiens, UniProt Q99814)
# T1 construct: endogenous in cells; host or cells: 786-O cells
# Test: VEGF ELISA assay: VEGF expression in 786-O cells
# Assay type: cell-based
# Settings: VEGF concentration in culture medium by ELISA, compounds from 10 uM down to 1 nM, treated twice, medium collected 24 hours after second treatment
# Method: The ability of the disclosed compounds to inhibit HIF-2α was measured by determining VEGF expression in 786-O cells. About 7500 786-O cells were seeded into each well of a 96-well, white, clear bottom plate (07-200-566, Fisher Scientific) with 200 ul growth medium. Four hours later, compounds were dispensed into wells by Tecan D300e digital dispenser with starting concentration of 10 uM and ½ log of dilution down to 1 nM as final concentration. Each concentration of treatment was performed in duplicate. About 20 hours later, medium was removed and fresh medium was added, followed by compounds treatment as described above. 24 hours later, cell culture medium was collected to determine VEGF concentration using an ELISA kit (R&D systems, cat #DVE00) following the manufacturer's instruction.
# The IC50 is calculated by GraphPad Prism using the dose-response-inhibition (four parameter) equation. The plate with cells was then subjected to CellTiter-Glo luminescence cell viability assay (Promega) to determine the effect of these compounds on cell numbers after the above treatment.
# T1 sequence (Q99814 whole entry): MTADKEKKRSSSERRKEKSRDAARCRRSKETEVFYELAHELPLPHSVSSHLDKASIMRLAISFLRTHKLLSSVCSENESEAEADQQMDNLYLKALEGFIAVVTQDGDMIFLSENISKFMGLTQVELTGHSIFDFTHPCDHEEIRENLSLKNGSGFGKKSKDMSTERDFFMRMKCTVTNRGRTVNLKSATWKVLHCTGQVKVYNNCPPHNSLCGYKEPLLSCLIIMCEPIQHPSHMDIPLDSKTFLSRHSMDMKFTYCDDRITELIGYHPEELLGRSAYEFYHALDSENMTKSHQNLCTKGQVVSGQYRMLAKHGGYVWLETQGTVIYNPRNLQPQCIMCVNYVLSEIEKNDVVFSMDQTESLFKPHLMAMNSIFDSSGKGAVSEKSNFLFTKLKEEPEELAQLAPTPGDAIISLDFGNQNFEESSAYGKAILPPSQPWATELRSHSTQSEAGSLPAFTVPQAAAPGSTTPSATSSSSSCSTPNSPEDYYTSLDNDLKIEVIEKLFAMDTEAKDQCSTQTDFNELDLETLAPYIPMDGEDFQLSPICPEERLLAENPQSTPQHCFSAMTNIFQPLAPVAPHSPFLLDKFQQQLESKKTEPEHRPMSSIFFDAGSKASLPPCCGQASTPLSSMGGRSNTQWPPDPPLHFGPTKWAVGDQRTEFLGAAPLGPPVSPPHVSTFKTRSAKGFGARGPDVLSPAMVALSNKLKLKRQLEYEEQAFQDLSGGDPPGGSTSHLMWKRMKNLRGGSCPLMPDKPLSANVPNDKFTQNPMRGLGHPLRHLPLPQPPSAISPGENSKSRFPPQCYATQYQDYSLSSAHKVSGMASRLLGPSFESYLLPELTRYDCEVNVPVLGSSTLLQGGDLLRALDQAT
row,Compound,EC50 [nM]
1,"[O-][S+]1c2c(ccc(Oc3cncc(Cl)c3)c2C(F)F)C(F)(F)C1(F)F (stereo not shown) [Compound 18, 6-((5-chloropyridin-3-yl)oxy)-7-(difluoromethyl)-2,2,3,3-tetrafluoro-2,3-dihydrobenzo-[b]thiophene 1-oxide]",1800
2,"a mixture of 3-fluoro-5-(((1R,3R)- 2,2,3-trifluoro-1-oxido-7- (trifluoromethyl)-2,3- dihydrobenzo[b]thiophen-4-yl)oxy) benzonitrile and 3-fluoro-5- (((1S,3S)-2,2,3-trifluoro-1- oxido-7-(trifluoromethyl)-2,3- dihydrobenzo[b]thiophen-4-yl) oxy)benzonitrile [Compound 27a]",9400
3,"N#Cc1cc(F)cc(Oc2ccc3c(c2C#N)[S+]([O-])C(F)(F)C3(F)F)c1 (stereo not shown) [Compound 31, 6-(3-cyano-5-fluorophenoxy)-2,2,3,3-tetrafluoro-2,3-dihydrobenzo [b]thiophene-7-carbonitrile 1-oxide]",190
4,"[O-][S+]1c2c(ccc(OC3CC(F)(F)C3)c2C(F)F)C(F)(F)C1(F)F (stereo not shown) [Compound 19, 6-(3,3-difluorocyclobutoxy)-7-(difluoromethyl)-2,2,3,3-tetrafluoro-2,3-dihydrobenzo[b]-thiophene 1-oxide]",2680
5,"[O-][S+]1c2c(ccc(Oc3cncc(F)c3)c2C(F)F)C(F)(F)C1(F)F (stereo not shown) [Compound 17, 7-(difluoromethyl)-2,2,3,3-tetrafluoro-6-((5-fluoropyridin-3-yl)oxy)-2,3-dihydrobenzo-[b]thiophene 1-oxide]",2130
6,"a mixture of 3-fluoro-5-(((1S,3R)- 2,2,3-trifluoro-7-(methylsulfonyl)- 1-oxido-2,3- dihydrobenzo[b]thiophen-4-yl)oxy) benzonitrile and 3-fluoro-5- (((1R,3S)-2,2,3-trifluoro-7- (methylsulfonyl)-1-oxido-2,3- dihydrobenzo[b]thiophen-4-yl) oxy)benzonitrile [Compound 24a]",8900
7,"[O-][S@@+]1c2c(ccc(Oc3cc(F)cc(Cl)c3)c2C(F)F)[C@H](F)C1(F)F (single isomer, unassigned) [Compound 12a]",860
8,"N#Cc1cc(F)cc(Oc2ccc3c(c2Cl)S(=O)(=O)C(F)(F)C3(F)F)c1 [Compound 29, 3-((7-chloro-2,2,3,3-tetrafluoro-1,1-dioxido-2,3-dihydrobenzo [b]thiophen-6-yl)oxy)-5-fluorobenzonitrile]",190
9,"N#Cc1cc(F)cc(Oc2ccc3c(c2C(F)F)S(=O)(=O)C(F)(F)C3(F)F)c1 [Compound 20, 3-((7-(difluoromethyl)-2,2,3,3-tetrafluoro-1,1-dioxido-2,3-dihydrobenzo[b]thiophen-6-yl)oxy)-5-fluorobenzonitrile]",27
10,"[O-][S@+]1c2c(ccc(Oc3cc(F)cc(F)c3)c2C(F)F)[C@H](F)C1(F)F (single isomer, unassigned) [Compound 9c]",74
11,"N#Cc1cc(F)cc(Oc2ccc3c(c2Cl)[S+]([O-])C(F)(F)C3(F)F)c1 (stereo not shown) [Compound 28, 3-((7-chloro-2,2,3,3-tetrafluoro-1-oxido-2,3-dihydrobenzo[b]thiophen-6-yl)oxy)-5-fluorobenzonitrile]",240
12,"a mixture of 3-(((1S,3R)-7- (difluoromethyl)-2,2,3-trifluoro-1- oxido-2,3-dihydrobenzo- [b]thiophen-6-yl)oxy)-5- fluorobenzonitrile and 3-(((1R,3S)- 7-(difluoromethyl)-2,2,3- trifluoro-1-oxido-2,3-dihydrobenzo [b]thiophen-6-yl)oxy)-5- fluorobenzonitrile [Compound 3a]",3500
13,"[O-][S@@+]1c2c(ccc(Oc3cc(F)cc(F)c3)c2C(F)F)[C@H](F)C1(F)F (single isomer, unassigned) [Compound 9a]",970
14,"N#Cc1cc(F)cc(Oc2ccc3c(c2C(F)F)[S+]([O-])C(F)(F)C3(F)F)c1 (single isomer, unassigned) [Compound 13a]",37
15,"N#Cc1cc(F)cc(Oc2ccc3c(c2Br)[S+]([O-])C(F)(F)C3(F)F)c1 (stereo not shown) [Compound 30, 3-((7-bromo-2,2,3,3-tetrafluoro-1-oxido-2,3-dihydrobenzo[b]thiophen-6-yl)oxy)-5-fluorobenzonitrile]",390
16,"N#Cc1cncc(Oc2ccc3c(c2C(F)F)[S+]([O-])C(F)(F)C3(F)F)c1 (stereo not shown) [Compound 16, 5-((7-(difluoromethyl)-2,2,3,3-tetrafluoro-1-oxido-2,3-dihydrobenzo[b]thiophen-6-yl)oxy)nicotinonitrile]",2390
17,"N#Cc1cc(Cl)cc(Oc2ccc3c(c2C(F)F)[S@@+]([O-])C(F)(F)[C@H]3F)c1 (single isomer, unassigned) [Compound 6d]",280
18,"N#Cc1cc(F)cc(Oc2ccc3c(c2C(F)F)[S+]([O-])C(F)(F)C3=O)c1 (stereo not shown) [Compound 1, 3-((7-(difluoromethyl)-2,2-difluoro-1-oxido-3-oxo-2,3-dihydrobenzo[b]thiophen-6-yl)oxy)-5-fluorobenzonitrile]",720
19,"[O-][S@+]1c2c(ccc(Oc3cc(F)cc(Cl)c3)c2C(F)F)[C@@H](F)C1(F)F (single isomer, unassigned) [Compound 12b]",880
20,"[O-][S+]1c2c(ccc(Oc3cc(F)cc(F)c3)c2C(F)F)C(F)(F)C1(F)F (stereo not shown) [Compound 15, 7-(difluoromethyl)-6-(3,5-difluorophenoxy)-2,2,3,3-tetrafluoro-2,3-dihydrobenzo[b]-thiophene 1-oxide]",130
21,"N#Cc1cc(F)cc(Oc2ccc3c(c2C(F)F)[S+]([O-])C(F)(F)C3(F)F)c1 (single isomer, unassigned) [Compound 13b]",190
22,"[O-][S@@+]1c2c(ccc(Oc3cc(F)cc(Cl)c3)c2C(F)F)[C@@H](F)C1(F)F (single isomer, unassigned) [Compound 12d]",1600
23,"a mixture of 3-fluoro-5-(((1R,3R)- 2,2,3-trifluoro-7-(methylsulfonyl)- 1-oxido-2,3- dihydrobenzo[b]thiophen-4-yl)oxy) benzonitrile and 3-fluoro-5- (((1S,3S)-2,2,3-trifluoro-7- (methylsulfonyl)-1-oxido-2,3- dihydrobenzo[b]thiophen-4-yl) oxy)benzonitrile [Compound 24b]",18500
24,"[O-][S@+]1c2c(ccc(Oc3cc(F)cc(Cl)c3)c2C(F)F)[C@H](F)C1(F)F (single isomer, unassigned) [Compound 12c]",45
25,"[O-][S@@+]1c2c(ccc(Oc3cc(F)cc(F)c3)c2C(F)F)[C@@H](F)C1(F)F (single isomer, unassigned) [Compound 9d]",3270
26,"a mixture of 3-fluoro-5-(((1S,3R)- 2,2,3-trifluoro-1-oxido-7- (trifluoromethyl)-2,3- dihydrobenzo[b]thiophen-4-yl)oxy) benzonitrile and 3-fluoro-5- (((1R,3S)-2,2,3-trifluoro-1- oxido-7-(trifluoromethyl)-2,3- dihydrobenzo[b]thiophen-4-yl) oxy)benzonitrile [Compound 27b]",670
27,"[O-][S@+]1c2c(ccc(Oc3cc(F)cc(F)c3)c2C(F)F)[C@@H](F)C1(F)F (single isomer, unassigned) [Compound 9b]",1200
28,"a mixture of 3-(((1S,3S)-7- (difluoromethyl)-2,2,3-trifluoro-1- oxido-2,3-dihydrobenzo- [b]thiophen-6-yl)oxy)-5- fluorobenzonitrile and 3-(((1R,3R)- 7-(difluoromethyl)-2,2,3- trifluoro-1-oxido-2,3-dihydrobenzo [b]thiophen-6-yl)oxy)-5- fluorobenzonitrile [Compound 3b]",160
